Results from patent publication US20060058320A1, “[1,2,4] Triazolo[1,5-c]pyrimidine derivatives” (KYOWA HAKKO KOGYO CO., LTD., priority 2002, published 2006).
Where a name gives a salt, the structure may show the parent alone. Read-outs that look alike come from different tables or passages of the source.

Test system: CGS 21680-induced catalepsy
Assay: Activity on CGS 21680-induced catalepsy
Assay type: in vivo, mice
Settings: for inhibition in vivo at 10 mg/kg: Mus musculus, po, read-out: Remission ratio (%); for Total score: total catalepsy score of 10 mice (maximum 50 points; 40 points or less = positive), one hour after administration; for Number of animals showing remission: cases with catalepsy score of 4 points or less in 10 cases
Protocol: Parkinson's disease is a motor disorder based on degeneration and cell death of the nigrostriatal dopaminergic neurons. When CGS 21680 (adenosine A2A receptor agonist) is administered into the intracerebral ventricle, the inhibitory synaptic transmission of GABA in the medium sized spiny neurons in the corpus striatum is inhibited directly via the adenosine A2A receptor [Journal of Neuroscience, vol. 16, p. 605 (1996)]. Accordingly, it is concidered that the adenosine A2A receptor agonists positively regulate the output of the GABAergic neurons from the corpus striatum to the globus pallidus lateralis, and, as a result, catalepsy is induced by the administration of CGS 21680.
The test was carried out using ten 5-week age male ddY mice (22-25 g in body weight, Japan SLC) per group. CGS 21680 (produced by RBI Co) was dissolved in physiological saline (produced by Otsuka Pharmaceutical Co., Ltd.), and 10 μg/20 μL of the solution was injected into mouse intracerebral ventricle. Each test compound was used by suspending it in distilled water containing 0.3% of polyoxylene (20) sorbitan monooleate (referred to as “Tween 80” hereinafter) (produced by Otsuka Pharmaceutical Co., Ltd.). The suspension containing each test compound or a solution containing no test Compound (distilled water containing 0.3% of Tween 80; used as a control) was orally administered (0.1 mL per 10 g of mouse body weight) 30 minutes before the injection of CGS 21680 into the intracerebral ventricle. One hour after the administration of the each test compound, only forelimbs or only hindlimbs of each mouse were laid on a vertically arranged stand made of acryl and having a size of 4.5 cm in height and 1.0 cm in width to measure catalepsy symptoms. All of the test compounds were administered orally in a dose of 10 mg/kg.
The criteria of the catalepsy score are shown below.
The effect was decided by a total catalepsy score of 10 mice in one group (the maximum score: 50 points). When the total score was 40 points or less, the activity of the compounds was decided positive. The number of the animals showing remission of catalepsy was expressed by the number of cases showing a catalepsy score of 4 points or less in 10 cases. The catalepsy remission ratio was expressed as the percentage of the total score in the test compound-administered group to the total score in the control group.

[1] = from total score of test group and control group, 10 mg/kg orally

Row | Structure (SMILES) | inhibition in vivo at 10 mg/kg [1] [%] | Total score (10 mg/kg orally) | inhibition in vivo at 10 mg/kg [%] | Number of animals showing remission (10 mg/kg orally) | Remission ratio (%) [1] [%]
1 | Nc1nc(CO)cc2nc(-c3ccco3)nn12 [Compound 22, 5-Amino-2-(2-furyl)-7-hydroxymethyl[1,2,4]triazolo[1,5-c]-pyrimidine] | 84 | 8 |  |  | 
2 | CCOC1(c2cc3nc(-c4ccco4)nn3c(N)n2)CC1 [Compound 26, 5-Amino-7-(1-ethoxycyclopropyl)-2-(2-furyl)[1,2,4]triazolo [1,5-c]pyrimidine] | 82 | 9 |  |  | 
3 | CC(C)(O)c1ccccc1OCc1cc2nc(-c3ccco3)nn2c(N)n1 [Compound 29, 5-Amino-7-[2-(1-hydroxy-1-methylethyl)phenoxymethyl]-2-(2-furyl)[1,2,4]triazolo[1,5-c]pyrimidine] | 88 | 6 |  |  | 
4 | COc1ccc(CN(C)Cc2cc3nc(-c4ccco4)nn3c(N)n2)cc1OC [Compound 35, 5-Amino-7-[(N-methyl-3,4-dimethoxybenzylamino)methyl]-2-(2-furyl)[1,2,4]triazolo[1,5-c]pyrimidine monohydrochloride] |  | 5 | 90 |  | 
5 | Nc1nc(-c2ccccn2)cc2nc(-c3ccco3)nn12 [Compound 52, 5-Amino-2-(2-furyl)-7-(2-pyridyl)[1,2,4]triazolo[1,5-c]-pyrimidine] | 84 | 8 |  |  | 
6 | Nc1nc(-c2cccnc2)cc2nc(-c3ccco3)nn12 [Compound 53, 5-Amino-2-(2-furyl)-7-(3-pyridyl) [1,2,4]triazolo[1,5-c]-pyrimidine] | 84 | 8 |  |  | 
7 | Nc1nc(-c2cc[nH]n2)cc2nc(-c3ccco3)nn12 [Compound 60, 5-Amino-2-(2-furyl)-7-(1H-pyrazol-3-yl)[1,2,4]triazolo[1,5-c]pyrimidine] | 98 | 1 |  |  | 
8 | Nc1nc(-c2ccc(CO)cn2)cc2nc(-c3ccco3)nn12 [Compound 62, 5-Amino-2-(2-furyl)-7-(3-hydroxymethylpyridin-6-yl)[1,2,4]-triazolo[1,5-c]pyrimidine] | 80 | 10 |  |  | 
9 | CC(C)(O)c1ccc(-c2cc3nc(-c4ccco4)nn3c(N)n2)cc1 [Compound 63, 5-Amino-2-(2-furyl)-7-[4-(1-hydroxy-1-methylethyl)phenyl]-[1,2,4]triazolo[1,5-c]pyrimidine] | 98 | 1 |  |  | 
10 | Nc1nc(C2=CCN(Cc3csnn3)CC2)cc2nc(-c3ccco3)nn12 [Compound 72, 5-Amino-2-(2-furyl)-7-[1-(1,2,3-thiadiazol-4-yl)methyl-1,2,3,6-tetrahydropyridin-4-yl][1,2,4]triazolo[1,5-c]-pyrimidine] |  | 0 | 100 |  | 
11 | Nc1nc(C2=CCN(CCO)CC2)cc2nc(-c3ccco3)nn12 [Compound 75, 5-Amino-2-(2-furyl)-7-[1-(2-hydroxyethyl)-1,2,3,6-tetra-hydropyridin-4-yl][1,2,4]triazolo[1,5-c]pyrimidine] |  | 2 | 96 |  | 
12 | COc1ccc(CNC(=O)c2cc3nc(-c4ccco4)nn3c(N)n2)cc1OC [Compound 80, 5-Amino-2-(2-furyl)[1,2,4]triazolo[1,5-c]pyrimidine-7-carboxylic acid (3,4-dimethoxybenzyl)amide] | 88 | 6 |  |  | 
13 | COc1ccc(CN(C)C(=O)c2cc3nc(-c4ccco4)nn3c(N)n2)cc1OC [Compound 81, 5-Amino-2-(2-furyl)[1,2,4]triazolo[1,5-c]pyrimidine-7-carboxylic acid [N-(3,4-dimethoxybenzyl)-N-methyl]amide] | 96 | 2 |  |  | 
14 | Nc1nc(C(=O)NCCc2ccccn2)cc2nc(-c3ccco3)nn12 [Compound 84, 5-Amino-2-(2-furyl) [1,2,4]triazolo[1,5-c]pyrimidine-7-carboxylic acid [2-(2-pyridyl)ethyl]amide] | 92 | 4 |  |  | 
15 | COCCNC(=O)c1cc2nc(-c3ccco3)nn2c(N)n1 [Compound 86, 5-Amino-2-(2-furyl)[1,2,4]triazolo[1,5-c]pyrimidine-7-carboxylic acid (2-methoxyethyl)amide] | 100 | 0 |  |  | 
16 | COCCN(C)C(=O)c1cc2nc(-c3ccco3)nn2c(N)n1 [Compound 87, 5-Amino-2-(2-furyl)[1,2,4]triazolo[1,5-c]pyrimidine-7-carboxylic acid [N-(2-methoxyethyl)-N-methyl]amide] | 82 | 9 |  |  | 
17 | Nc1nc(C(=O)NCc2ccccc2)cc2nc(-c3ccco3)nn12 [Compound 91, 5-Amino-2-(2-furyl)[1,2,4]triazolo[1,5-c]pyrimidine-7-carboxylic acid benzylamide] | 94 | 3 |  |  | 
18 | Nc1nc(C(=O)NCCCN2CCCC2=O)cc2nc(-c3ccco3)nn12 [Compound 92] | 82 | 9 |  |  | 
19 | CC(C)N(Cc1ccccc1)C(=O)c1cc2nc(-c3ccco3)nn2c(N)n1 [Compound 100, 5-Amino-2-(2-furyl)[1,2,4]triazolo[1,5-c]pyrimidine-7-carboxylic acid (N-benzyl-N-isopropyl)amide] |  | 15 |  | 8 | 64
20 | CCN(Cc1ccncc1)C(=O)c1cc2nc(-c3ccco3)nn2c(N)n1 [Compound 102, 5-Amino-2-(2-furyl)[1,2,4]triazolo[1,5-c]pyrimidine-7-carboxylic acid [N-ethyl-N-(4-pyridylmethyl)]amide] | 92 | 4 |  |  | 
21 | CN(Cc1cccnc1)C(=O)c1cc2nc(-c3ccco3)nn2c(N)n1 [Compound 105, 5-Amino-2-(2-furyl)[1,2,4]triazolo[1,5-c]pyrimidine-7-carboxylic acid [N-methyl-N-(3-pyridylmethyl)]amide] | 82 | 9 |  |  | 
22 | CN(C(=O)c1cc2nc(-c3ccco3)nn2c(N)n1)c1ccc(Cl)nc1 [Compound 118, 5-Amino-2-(2-furyl)[1,2,4]triazolo[1,5-c]pyrimidine-7-carboxylic acid [N-(6-chloropyridin-3-yl)-N-methyl]amide] | 94 | 3 |  |  | 
23 | CN(Cc1ccc(F)cc1)C(=O)c1cc2nc(-c3ccco3)nn2c(N)n1 [Compound 121, 5-Amino-2-(2-furyl)[1,2,4]triazolo[1,5-c]pyrimidine-7-carboxylic acid [N-(4-fluorobenzyl)-N-methyl]amide monohydrochloride] | 72 | 14 |  |  | 
24 | CCN(Cc1cccnc1Cl)C(=O)c1cc2nc(-c3ccco3)nn2c(N)n1 [Compound 129, 5-Amino-2-(2-furyl)[1,2,4]triazolo[1,5-c]pyrimidine-7-carboxylic acid [N-ethyl-N-(2-chloropyridin-3-ylmethyl)]-amide] | 90 | 5 |  |  | 
25 | Cc1ccc(CN(C)C(=O)c2cc3nc(-c4ccco4)nn3c(N)n2)cn1 [Compound 130, 5-Amino-2-(2-furyl)[1,2,4]triazolo[1,5-c]pyrimidine-7-carboxylic acid [N-methyl-N-(6-methylpyridin-3-ylmethyl)]-amide] | 70 | 15 |  |  | 
26 | CN(CCc1cccnc1)C(=O)c1cc2nc(-c3ccco3)nn2c(N)n1 [Compound 138, 5-Amino-2-(2-furyl)[1,2,4]triazolo[1,5-c]pyrimidine-7-carboxylic acid {N-methyl-N-[2-(3-pyridyl)ethyl]}amide] | 78 | 11 |  |  | 
27 | COC1CCN(C(=O)c2cc3nc(-c4ccco4)nn3c(N)n2)CC1 [Compound 144, 5-Amino-2-(2-furyl)[1,2,4]triazolo[1,5-c]pyrimidin-7-yl 4-methoxypiperidino ketone] | 84 | 7 |  |  | 
28 | COC[C@H]1CCCN1C(=O)c1cc2nc(-c3ccco3)nn2c(N)n1 [Compound 149, (2R)-(2-Methoxymethyl)pyrrolidinyl 5-amino-2-(2-furyl)-7-[1,2,4]triazolo[1,5-c]pyrimidin-7-yl ketone] |  | 15 |  | 7 | 70
